The test concerns the target human GABA A receptor α5β3γ2 (Homo sapiens (Human), UniProt P18507+P31644). The experiment in a line: [3H]flumazenil competition binding assay, human GABA A α5β3γ2 receptors expressed in HEK293 cells. Particulars: human receptor; displacement of [3H]flumazenil (0.5 nM); means of two determinations; read-out: hKi GABAAa5. The method, boiled down:
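Ki values, each the mean of two runs, derive from displacement of [3H]flumazenil from human α5β3γ2 GABA A receptors transiently expressed in HEK293 membranes. Binding ran 1 h at 4° C in Krebs-tris, pH 7.5, before filter harvest and scintillation counting.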
`Cc1onc(-c2ccc(Cl)cn2)c1COc1ccc(C(=O)N2CCOCC2)cn1` [Example 309, {6-[3-(5-Chloro-pyridin-2-yl)-5-methyl-isoxazol-4-ylmethoxy]-pyridin-3-yl}-morpholin-4-yl-methanone]: the Ki was determined as 0.6 nM. For `Cc1onc(-c2ccc(Cl)cn2)c1COc1ccc(C(=O)NCCO)cn1` [Example 311, 6-[3-(5-Chloro-pyridin-2-yl)-5-methyl-isoxazol-4-ylmethoxy]-(2-hydroxy-ethyl)-nicotinamide], the Ki was determined as 0.1 nM. For `COC(=O)c1ccc(OCc2c(-c3ccncn3)noc2C)nc1` [Example 312, 6-(5-Methyl-3-pyrimidin-4-yl-isoxazol-4-ylmethoxy)-nicotinic acid methyl ester], the Ki was found to be 11.3 nM. In the case of `Cc1onc(-c2ccncn2)c1COc1ccc(C(=O)NC(C)C)cn1` [Example 313, N-Isopropyl-6-(5-methyl-3-pyrimidin-4-yl-isoxazol-4-ylmethoxy)-nicotinamide], the Ki was determined as 3 nM. For `Cc1onc(-c2ccncn2)c1COc1ccc(C(=O)NC2CC2)cn1` [Example 314, N-Cyclopropyl-6-(5-methyl-3-pyrimidin-4-yl-isoxazol-4-ylmethoxy)-nicotinamide] the value was 5.6 nM. Turning to `Cc1onc(-c2ccncn2)c1COc1ccc(C(=O)NC(C)(C)CO)cn1` [Example 315, N-(2-Hydroxy-1,1-dimethyl-ethyl)-6-(5-methyl-3-pyrimidin-4-yl-isoxazol-4-ylmethoxy)-nicotinamide], the Ki came out at 8.1 nM. For `Cc1onc(-c2ccncn2)c1COc1ccc(C(=O)N2CCOCC2)cn1` [Example 316, [6-(5-Methyl-3-pyrimidin-4-yl-isoxazol-4-ylmethoxy)-pyridin-3-yl]-morpholin-4-yl-methanone] the value was 36.2 nM.

With `CCNC(=O)c1ccc(OCc2c(-c3ccncn3)noc2C)nc1` [Example 317, N-Ethyl-6-(5-methyl-3-pyrimidin-4-yl-isoxazol-4-ylmethoxy)-nicotinamide], the Ki was determined as 3.1 nM. `CNC(=O)c1ccc(OCc2c(-c3ccncn3)noc2C)nc1` [Example 318, N-Methyl-6-(5-methyl-3-pyrimidin-4-yl-isoxazol-4-ylmethoxy)-nicotinamide]: the Ki worked out at 4.8 nM.

Take `Cc1onc(-c2ccncn2)c1COc1ccc(C(=O)N2CCSCC2)cn1` [Example 319, [6-(5-Methyl-3-pyrimidin-4-yl-isoxazol-4-ylmethoxy)-pyridin-3-yl]-thiomorpholin-4-yl-methanone]: the Ki was found to be 20.2 nM.

On to `Cc1onc(-c2ccncn2)c1COc1ccc(C(=O)NCCO)cn1` [Example 320, N-(2-Hydroxy-ethyl)-6-(5-methyl-3-pyrimidin-4-yl-isoxazol-4-ylmethoxy)-nicotinamide], for which the Ki amounted to 6 nM. With `CC(C)NC(=O)c1ccc(OCc2conc2-c2ccccc2)nc1` [Example 321, N-Isopropyl-6-(3-phenyl-isoxazol-4-ylmethoxy)-nicotinamide], the Ki was determined as 21.4 nM. Regarding `O=C(NC1CCOCC1)c1ccc(OCc2conc2-c2ccccc2)nc1` [Example 322, 6-(3-Phenyl-isoxazol-4-ylmethoxy)-N-(tetrahydro-pyran-4-yl)-nicotinamide], the Ki was found to be 17.7 nM. With `CC(C)NC(=O)c1ccc(OCc2conc2-c2ccc(F)cc2)nc1` [Example 323, 6-[3-(4-Fluoro-phenyl)-isoxazol-4-ylmethoxy]-N-isopropyl-nicotinamide], the Ki amounted to 7.3 nM. For `O=C(NC1CCOCC1)c1ccc(OCc2conc2-c2ccc(F)cc2)nc1` [Example 324, 6-[3-(4-Fluoro-phenyl)-isoxazol-4-ylmethoxy]-N-(tetrahydro-pyran-4-yl)-nicotinamide], the Ki came out at 10.6 nM.

Take `CC(CO)NC(=O)c1ccc(OCc2conc2-c2ccc(F)cc2)nc1` (stereo not drawn) [Example 325, 6-[3-(4-Fluoro-phenyl)-isoxazol-4-ylmethoxy]-N-(2-hydroxy-1-methyl-ethyl)-nicotinamide]: the Ki was 9 nM. The result for `C[C@H](CO)NC(=O)c1ccc(OCc2conc2-c2ccc(F)cc2)nc1` [Example 326, 6-[3-(4-Fluoro-phenyl)-isoxazol-4-ylmethoxy]-N—((R)-2-hydroxy-1-methyl-ethyl)-nicotinamide] reads 27.7 nM. In the case of `C[C@@H](CO)NC(=O)c1ccc(OCc2conc2-c2ccc(F)cc2)nc1` [Example 327, 6-[3-(4-Fluoro-phenyl)-isoxazol-4-ylmethoxy]-N—((S)-2-hydroxy-1-methyl-ethyl)-nicotinamide], the Ki turned out to be 13.9 nM.

For `O=C(NCC1CC1)c1ccc(OCc2conc2-c2ccc(F)cc2)nc1` [Example 328, N-Cyclopropylmethyl-6-[3-(4-fluoro-phenyl)-isoxazol-4-ylmethoxy]-nicotinamide], the Ki came out at 17.4 nM. On to `O=C(NC1CC1)c1ccc(OCc2conc2-c2ccc(F)cc2)nc1` [Example 329, N-Cyclopropyl-6-[3-(4-fluoro-phenyl)-isoxazol-4-ylmethoxy]-nicotinamide], for which the Ki came to 12.9 nM. As to `O=C(NCC(F)(F)F)c1ccc(OCc2conc2-c2ccc(F)cc2)nc1` [Example 330, 6-[3-(4-Fluoro-phenyl)-isoxazol-4-ylmethoxy]-N-(2,2,2-trifluoro-ethyl)-nicotinamide], the Ki came to 15.1 nM. As to `O=C(N[C@H]1CCC[C@@H]1O)c1ccc(OCc2conc2-c2ccc(F)cc2)nc1` [Example 331, 6-[3-(4-Fluoro-phenyl)-isoxazol-4-ylmethoxy]-N-((1S,2S)-2-hydroxy-cyclopentyl)-nicotinamide], the Ki turned out to be 17.8 nM. Regarding `O=C(NCC(O)C(F)(F)F)c1ccc(OCc2conc2-c2ccc(F)cc2)nc1` (stereo not drawn) [Example 333, 6-[3-(4-Fluoro-phenyl)-isoxazol-4-ylmethoxy]-N-(3,3,3-trifluoro-2-hydroxy-propyl)-nicotinamide], the Ki came to 13.1 nM. On to `O=C(NC(CO)CO)c1ccc(OCc2conc2-c2ccc(F)cc2)nc1` [Example 334, 6-[3-(4-Fluoro-phenyl)-isoxazol-4-ylmethoxy]-N-(2-hydroxy-1-hydroxymethyl-ethyl)-nicotinamide], for which the Ki was 21.2 nM. In the case of `CC(=O)NCCNC(=O)c1ccc(OCc2conc2-c2ccc(F)cc2)nc1` [Example 335, N-(2-Acetylamino-ethyl)-6-[3-(4-fluoro-phenyl)-isoxazol-4-ylmethoxy]-nicotinamide], the Ki came out at 37.6 nM.

For `COCCNC(=O)c1ccc(OCc2conc2-c2ccc(F)cc2)nc1` [Example 336, 6-[3-(4-Fluoro-phenyl)-isoxazol-4-ylmethoxy]-N-(2-methoxy-ethyl)-nicotinamide], the Ki was 40.7 nM. The result for `C[C@@H](O)CNC(=O)c1ccc(OCc2conc2-c2ccc(F)cc2)nc1` [Example 337, 6-[3-(4-Fluoro-phenyl)-isoxazol-4-ylmethoxy]-N—((R)-2-hydroxy-propyl)-nicotinamide] reads 9.5 nM; that for `O=C(NCCO)c1ccc(OCc2conc2-c2ccc(F)cc2)nc1` [Example 338, 6-[3-(4-Fluoro-phenyl)-isoxazol-4-ylmethoxy]-N-(2-hydroxy-ethyl)-nicotinamide], 23.3 nM; that for `O=C(NCC1(O)CC1)c1ccc(OCc2conc2-c2ccc(F)cc2)nc1` [Example 339, 6-[3-(4-Fluoro-phenyl)-isoxazol-4-ylmethoxy]-N-(1-hydroxy-cyclopropylmethyl)-nicotinamide], 23.1 nM. `O=C(NC1CCS(=O)(=O)C1)c1ccc(OCc2conc2-c2ccc(F)cc2)nc1` (stereo not drawn) [Example 340, N-(1,1-Dioxo-tetrahydro-1,6-thiophen-3-yl)-6-[3-(4-fluoro-phenyl)-isoxazol-4-ylmethoxy]-nicotinamide]: the Ki stood at 19.4 nM. `O=C(NCC(F)(F)F)c1ccc(OCc2conc2-c2ccc(Cl)cc2)nc1` [Example 342, 6-[3-(4-Chloro-phenyl)-isoxazol-4-ylmethoxy]-N-(2,2,2-trifluoro-ethyl)-nicotinamide]: the Ki is 15.1 nM. Consider `O=C(NC1CC1)c1ccc(OCc2conc2-c2ccc(Cl)cc2)nc1` [Example 343, 6-[3-(4-Chloro-phenyl)-isoxazol-4-ylmethoxy]-N-cyclopropyl-nicotinamide], for which the Ki was 12.4 nM. The result for `CC(C)NC(=O)c1ccc(OCc2conc2-c2ccc(Cl)cc2)nc1` [Example 344, 6-[3-(4-Chloro-phenyl)-isoxazol-4-ylmethoxy]-N-isopropyl-nicotinamide] reads 5.6 nM; that for `O=C(NC1CCOCC1)c1ccc(OCc2conc2-c2ccc(Cl)cc2)nc1` [Example 345, 6-[3-(4-Chloro-phenyl)-isoxazol-4-ylmethoxy]-N-(tetrahydro-pyran-4-yl)-nicotinamide], 6.4 nM.

Turning to `O=C(NCCO)c1ccc(OCc2conc2-c2ccc(Cl)cc2)nc1` [Example 346, 6-[3-(4-Chloro-phenyl)-isoxazol-4-ylmethoxy]-N-(2-hydroxy-ethyl)-nicotinamide], the Ki worked out at 10.9 nM. Turning to `CC(O)CNC(=O)c1ccc(OCc2conc2-c2ccc(Cl)cc2)nc1` (stereo not drawn) [Example 347, 6-[3-(4-Chloro-phenyl)-isoxazol-4-ylmethoxy]-N-(2-hydroxy-propyl)-nicotinamide], the Ki worked out at 7.1 nM. In the case of `O=C(NCCCO)c1ccc(OCc2conc2-c2ccc(Cl)cc2)nc1` [Example 348, 6-[3-(4-Chloro-phenyl)-isoxazol-4-ylmethoxy]-N-(3-hydroxy-propyl)-nicotinamide], the Ki was found to be 10.3 nM. For `CC(C)(CO)NC(=O)c1ccc(OCc2conc2-c2ccc(Cl)cc2)nc1` [Example 349, 6-[3-(4-Chloro-phenyl)-isoxazol-4-ylmethoxy]-N-(2-hydroxy-1,1-dimethyl-ethyl)-nicotinamide] the value was 39.9 nM.

As for `CC(C)(CO)CNC(=O)c1ccc(OCc2conc2-c2ccc(Cl)cc2)nc1` [Example 350, 6-[3-(4-Chloro-phenyl)-isoxazol-4-ylmethoxy]-N-(3-hydroxy-2,2-dimethyl-propyl)-nicotinamide], the Ki came to 22.9 nM.

For the origin of these results see US8846719B2, “Isoxazolo-pyridine derivatives” (Roche Palo Alto LLC, priority 2007, dated 2014).
